Assay results reported in patent US8163724B2, “Glucocorticosteroids, processes for their preparation, pharmaceutical compositions containing them and their use in therapy” (AstraZeneca AB, priority 2007, dated 2012).

These compounds were tested against T1, recombinant human GR (Homo sapiens, UniProt P04150) (assay: Human Glucocorticoid Receptor (GR) Assay (fluorescence polarization, Panvera/Invitrogen kit)). Settings: fluorescence polarization; GS Red tracer; 2 hours at room temperature; 100% control 10 μM Dexamethasone; read-out: Inhibition of GR binding, IC50.
T1 construct: purchased Panvera/Invitrogen P2812 (kit P2893)
T1 sequence (P04150 1-777): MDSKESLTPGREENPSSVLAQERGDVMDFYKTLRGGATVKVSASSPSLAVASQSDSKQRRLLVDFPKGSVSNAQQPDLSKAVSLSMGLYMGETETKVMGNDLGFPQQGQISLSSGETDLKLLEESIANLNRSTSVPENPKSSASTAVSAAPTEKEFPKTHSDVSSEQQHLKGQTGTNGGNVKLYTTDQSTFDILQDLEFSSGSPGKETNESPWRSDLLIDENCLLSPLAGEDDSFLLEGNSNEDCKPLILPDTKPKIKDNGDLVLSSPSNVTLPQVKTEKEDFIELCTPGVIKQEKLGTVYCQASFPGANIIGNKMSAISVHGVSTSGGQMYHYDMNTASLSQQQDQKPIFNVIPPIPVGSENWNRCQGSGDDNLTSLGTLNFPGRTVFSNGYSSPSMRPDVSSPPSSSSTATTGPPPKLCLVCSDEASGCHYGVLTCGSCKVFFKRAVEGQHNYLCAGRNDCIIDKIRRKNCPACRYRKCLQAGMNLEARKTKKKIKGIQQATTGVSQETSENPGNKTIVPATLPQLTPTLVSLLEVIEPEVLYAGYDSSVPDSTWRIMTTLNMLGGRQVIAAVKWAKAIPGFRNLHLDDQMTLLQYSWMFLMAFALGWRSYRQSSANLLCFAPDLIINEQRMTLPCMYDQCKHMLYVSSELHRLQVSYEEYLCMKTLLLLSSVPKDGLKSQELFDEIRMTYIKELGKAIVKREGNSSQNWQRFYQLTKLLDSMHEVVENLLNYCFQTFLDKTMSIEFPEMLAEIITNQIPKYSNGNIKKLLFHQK
Assay type: binding
Procedure, shortened: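 Fluorescence polarization competition with recombinant GR and GS Red fluorescent ligand plus stabilizing peptide and DTT in potassium phosphate/sodium molybdate/EDTA buffer with DMSO. Incubated 2 hours at room temperature in the dark; 0% control DMSO, 100% control 10 μM dexamethasone.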
For C[C@]12Cc3cnn(-c4ccc(F)cc4)c3C=C1CC[C@@H]1[C@@H]2[C@@H](O)C[C@@]2(C)[C@H]1CC[C@]2(OC(=O)c1ccno1)C(=O)SCCO [Example 61, (1R,3aS,3bS,10aR,10bS,11S,12aS)-7-(4-Fluorophenyl)-11-hydroxy-1-{[(2-hydroxy-ethyl)thio]carbonyl}-10a,12a-dimethyl-1,2,3,3a,3b,4,5,7,10,10a,10b. 1,12,12a-tetradecahydrocyclopenta[5,6]naphtho[1,2-f]indazol-1-yl isoxazole-5-carboxylate], the IC50 was 8.3 nM.
CCC(=O)O[C@]1(C(=O)SCC(C)=O)CC[C@H]2[C@@H]3CCC4=Cc5c(cnn5-c5ccc(F)cc5)C[C@]4(C)[C@H]3[C@@H](O)C[C@@]21C [Example 17, (1R,3aS,3bS,10aR,10bS,11S,12aS)-7-(4-Fluorophenyl)-11-hydroxy-10a,12a-dimethyl-1-{[(2-oxopropyl)thio]carbonyl}-1,2,3,3a,3b,4,5,7,10,10a,10b,11,12,12a-tetradecaphydrocyclopenta[5,6]naphtho[1,2-f]indazol-1-yl propanoate] gave an IC50 of 4.8 nM.
CCSC(=O)[C@@]1(OC(=O)c2scnc2C)CC[C@H]2[C@@H]3CCC4=Cc5c(cnn5-c5ccc(F)cc5)C[C@]4(C)[C@H]3[C@@H](O)C[C@@]21C [Example 3, (1R,3aS,3bS,10aR,10bS,11S,12aS)-1-[(Ethylthio)carbonyl]-7-(4-fluorophenyl)-11-hydroxy-10a,12a-dimethyl-1,2,3,3a,3b,4,5,7,10,10a,10b,11,12,12a-tetradecahydrocyclopenta[5,6]naphtho[1,2-f]indazol-1-yl 4-methyl-1,3-thiazole-5-carboxylate] was tested, and the IC50 was 15 nM.
With CCC(=O)O[C@]1(C(=O)SCCO)CC[C@H]2[C@@H]3CCC4=Cc5c(cnn5-c5ccc(F)cc5)C[C@]4(C)[C@H]3[C@@H](O)C[C@@]21C [Example 15, (1R,3aS,3bS,10aR,10bS,11S,12aS)-7-(4-Fluorophenyl)-11-hydroxy-1-{[(2-hydroxyethyl)thio]carbonyl}-10a,12a-dimethyl-1,2,3,3a,3b,4,5,7,10,10a,10b,11,12,12a-tetradecahydropcyclopenta[5,6]naphtho[1,2-f]indazol-1-yl propanoate] the IC50 was 3.7 nM.
Work on COCC(=O)O[C@]1(C(=O)SCC#N)CC[C@H]2[C@@H]3CCC4=Cc5c(cnn5-c5ccc(F)cc5)C[C@]4(C)[C@H]3[C@@H](O)C[C@@]21C [Example 30, (1R,3aS,3bS,10aR,10bS,11S,12aS)-1-{[(Cyanomethyl)thio]carbonyl}-7-(4-fluoro-phenyl)-11-hydroxy-10a,12a-dimethyl-1,2,3,3a,3b,4,5,7,10,10a,10b,11,12,12a-tetradecahydrocyclopenta[5,6]naphtho[1,2-f]indazol-1-yl methoxyacetate] yielded an IC50 of 3.1 nM.
CC(=O)OCC(=O)CSC(=O)[C@@]1(OC(=O)c2ccco2)CC[C@H]2[C@@H]3CCC4=Cc5c(cnn5-c5ccc(F)cc5)C[C@]4(C)[C@H]3[C@@H](O)C[C@@]21C [Example 87, (1R,3aS,3bS,10aR,10bS,11S,12aS)-1-({[3-(Acetyloxy)-2-oxopropyl]sulfanyl}carbonyl)-7-(4-fluorophenyl)-11-hydroxy-10a,12a-dimethyl-1,2,3,3a,3b,4,5,7,10,10a,10b,11,12,12a-tetradecahydrocyclopenta[5,6]naphtho[1,2-f]indazol-1-yl furan-2-carboxylate] gave an IC50 of 5.3 nM.
With C[C@]12Cc3cnn(-c4ccc(F)cc4)c3C=C1CC[C@@H]1[C@@H]2[C@@H](O)C[C@@]2(C)[C@H]1CC[C@]2(OC(=O)c1ccco1)C(=O)SCC#N [Example 7, (1R,3aS,3bS,10aR,10bS,11S,12aS)-1-{[(Cyanomethyl)thio]carbonyl}-7-(4-fluorophenyl)-11-hydroxy-10a,12a-dimethyl-1,2,3,3a,3b,4,5,7,10,10a,10b,11,12,12a-tetradecahydrocyclopenta[5,6]naphtho[1,2-f]indazol-1-yl 2-furoate] the IC50 was 5.6 nM.
C[C@]12Cc3cnn(-c4ccc(F)cc4)c3C=C1CC[C@@H]1[C@@H]2[C@@H](O)C[C@@]2(C)[C@H]1CC[C@]2(OC(=O)c1ccno1)C(=O)SCC#N [Example 59, (1R,3aS,3bS,10aR,10bS,11S,12aS)-1-{[(Cyanomethyl)thio]carbonyl}-7-(4-fluorophenyl)-11-hydroxy-10a,12a-dimethyl-1,2,3,3a,3b,4,5,7,10,10a,10b,11,12,12a-tetradecahydropcyclopenta[5,6]naphtho[1,2-f]indazol-1-yl isoxazole-5-carboxylate] gave an IC50 of 3.9 nM.
In the case of COCSC(=O)[C@@]1(OC(=O)c2ccco2)CC[C@H]2[C@@H]3CCC4=Cc5c(cnn5-c5ccc(F)cc5)C[C@]4(C)[C@H]3[C@@H](O)C[C@@]21C [Example 93, (1R,3aS,3bS,10aR,10bS,11S,12aS)-7-(4-Fluorophenyl)-11-hydroxy-1-{[(methoxymethyl)sulfanyl]carbonyl}-10a,12a-dimethyl-1,2,3,3a,3b,4,5,7,10,10a,10b,11,12,12a-tetradecahydrocyclopenta[5,6]naphtho[1,2-f]indazol-1-yl furan-2-carboxylate], the IC50 is reported as 5.6 nM.
Compound CCC(=O)O[C@]1(C(=O)SC)CC[C@H]2[C@@H]3CCC4=Cc5c(cnn5-c5ccc(F)c(C(=O)SC)c5)C[C@]4(C)[C@H]3[C@@H](O)C[C@@]21C [Example 175, (1R,3aS,3bS,10aR,10bS,11S,12aS)-7-{4-Fluoro-3-[(methylsulfanyl)carbonyl]phenyl}-11-hydroxy-10a,12a-dimethyl-1-[(methylsulfanyl)carbonyl]-1,2,3,3a,3b,4,5,7,10,10a,10b,11,12,12a-tetradecahydrocyclopenta[5,6]naphtho[1,2-f]indazol-1-yl propanoate] has an IC50 of 18 nM.
C=CCSC(=O)[C@@]1(OC(=O)CC)CC[C@H]2[C@@H]3CCC4=Cc5c(cnn5-c5ccc(F)cc5)C[C@]4(C)[C@H]3[C@@H](O)C[C@@]21C [Example 23, (1R,3aS,3bS,10aR,10bS,11S,12aS)-7-(4-Fluorophenyl)-11-hydroxy-10a,12a-dimethyl-1-[(prop-2-en-1-ylthio)carbonyl]-1,2,3,3a,3b,4,5,7,10,10a,10b,11,12,12a-tetradecahydropcyclopenta[5,6]naphtho[1,2-f]indazol-1-yl propanoate] gave an IC50 of 13 nM.
C[C@]12Cc3cnn(-c4ccc(F)cc4)c3C=C1CC[C@@H]1[C@@H]2[C@@H](O)C[C@@]2(C)[C@H]1CC[C@]2(OC(=O)c1ccco1)C(=O)SCSC#N [Example 83, (1R,3aS,3bS,10aR,10bS,11S,12aS)-7-(4-Fluorophenyl)-11-hydroxy-10a,12a-dimethyl-1-{[(thiocyanatomethyl)sulfanyl]carbonyl}-1,2,3,3a,3b,4,5,7,10,10a,10b,11,12,12a-tetradecahydrocyclopenta[5,6]naphtho[1,2-f]indazol-1-yl furan-2-carboxylate] showed an IC50 of 18 nM.
COCC(=O)O[C@]1(C(=O)SCC#N)CC[C@H]2[C@@H]3CCC4=Cc5c(cnn5-c5ccc(F)nc5)C[C@]4(C)[C@H]3[C@@H](O)C[C@@]21C [Example 156, (1R,3aS,3bS,10aR,10bS,11S,12aS)-1-{[(Cyanomethyl)sulfanyl]carbonyl}-7-(6-fluoropyridin-3-yl)-11-hydroxy-10a,12a-dimethyl-1,2,3,3a,3b,4,5,7,10,10a,10b,11,12,12a-tetradecahydrocyclopenta[5,6]naphtho[1,2-f]indazol-1-yl methoxyacetate] gave an IC50 of 1.3 nM.
C[C@]12Cc3cnn(-c4ccc(F)cc4)c3C=C1CC[C@@H]1[C@@H]2[C@@H](O)C[C@@]2(C)[C@H]1CC[C@]2(OC(=O)C1CCCO1)C(=O)SCF (stereo partly drawn) [Example 137, (1R,3aS,3bS,10aR,10bS,11S,12aS)-1-{[(Fluoromethyl)sulfanyl]carbonyl}-7-(4-fluorophenyl)-11-hydroxy-10a,12a-dimethyl-1,2,3,3a,3b,4,5,7,10a,10b,11,12,12a-tetradecahydrocyclopenta[5,6]naphtho[1,2-f]indazol-1-yl (2R)-tetrahydrofuran-2-carboxylate] gave an IC50 of 2.8 nM.
With CC(=O)CSC(=O)[C@@]1(OC(=O)c2cocn2)CC[C@H]2[C@@H]3CCC4=Cc5c(cnn5-c5ccc(F)cc5)C[C@]4(C)[C@H]3[C@@H](O)C[C@@]21C [Example 46, (1R,3aS,3bS,10aR,10bS,11S,12aS)-7-(4-Fluorophenyl)-11-hydroxy-10a,12a-dimethyl-1-{[(2-oxopropyl)thio]carbonyl}-1,2,3,3a,3b,4,5,7,10,10a,10b,11,12,12a-tetradecahydropcyclopenta[5,6]naphtho[1,2-f]indazol-1-yl 1,3-oxazole-4-carboxylate] the IC50 was 3.9 nM.
